Read-outs that look alike come from different tables or passages of the source.
How the values were obtained:
PFTAIRE2 = PFTAIRE2 (Homo sapiens, UniProt Q96Q40); conditions: 1 µM; binder
PRKD3 = PRKD3 (Homo sapiens, UniProt O94806); conditions: 1 µM; binder
CLK1 = CLK1 (Homo sapiens, UniProt P49759); conditions: 1 µM; binder
PIK3CG = PIK3CG (Homo sapiens, UniProt P48736); conditions: 1 µM; binder
SIK2 = SIK2 (Homo sapiens, UniProt Q9H0K1); conditions: 1 µM; binder
MST4 = MST4 (Homo sapiens, UniProt Q9P289); conditions: 1 µM; binder
RIOK1 = RIOK1 (Homo sapiens, UniProt Q9BRS2); conditions: 1 µM; binder
PKN2 = PKN2 (Homo sapiens, UniProt Q16513); conditions: 1 µM; binder
YANK2 = YANK2 (Homo sapiens, UniProt Q9NY57); conditions: 1 µM; binder
EGFR(L858R) = EGFR(L858R) (Homo sapiens, UniProt P00533, L858R); conditions: 1 µM; binder
CAMK2D = CAMK2D (Homo sapiens, UniProt Q13557); conditions: 1 µM; binder
CDKL3 = CDKL3 (Homo sapiens, UniProt Q8IVW4); conditions: 1 µM; binder
FAK = FAK (Homo sapiens, UniProt Q05397); conditions: 1 µM; binder
LIMK2 = LIMK2 (Homo sapiens, UniProt P53671); conditions: 1 µM; binder
ABL1-nonphosphorylated = ABL1-nonphosphorylated (Homo sapiens, UniProt P00519); conditions: 1 µM; binder
MAP3K2 = MAP3K2 (Homo sapiens, UniProt Q9Y2U5); conditions: 1 µM; binder
MET = MET (Homo sapiens, UniProt P08581); conditions: 1 µM; binder
RPS6KA5 = RPS6KA5 (Homo sapiens, UniProt O75582); conditions: Kin.Dom.1 N-terminal; binder
GRK2 = GRK2 (Homo sapiens, UniProt P25098); conditions: 1 µM; binder
CSNK1G3 = CSNK1G3 (Homo sapiens, UniProt Q9Y6M4); conditions: 1 µM; binder
ANKK1 = ANKK1 (Homo sapiens, UniProt Q8NFD2); conditions: 1 µM; binder
INSR = INSR (Homo sapiens, UniProt P06213); conditions: 1 µM; binder
EPHB1 = EPHB1 (Homo sapiens, UniProt P54762); conditions: 1 µM; binder
MYLK3 = MYLK3 (Homo sapiens, UniProt Q32MK0); conditions: 1 µM; binder
CSF1R = CSF1R (Homo sapiens, UniProt P07333); conditions: 1 µM; binder
KIT = KIT (Homo sapiens, UniProt P10721); conditions: 1 µM; binder
ABL1(F317L) = ABL1(F317L) (Homo sapiens, UniProt P00519, F317L); conditions: 1 µM, binder
TNIK = TNIK (Homo sapiens, UniProt Q9UKE5); conditions: 1 µM; binder
CDC2L1 = CDC2L1 (Homo sapiens, UniProt P21127); conditions: 1 µM; binder
CDK7 = CDK7 (Homo sapiens, UniProt P50613); conditions: 1 µM; binder

Chain of ABL1(F317L) (P00519 whole entry F317L): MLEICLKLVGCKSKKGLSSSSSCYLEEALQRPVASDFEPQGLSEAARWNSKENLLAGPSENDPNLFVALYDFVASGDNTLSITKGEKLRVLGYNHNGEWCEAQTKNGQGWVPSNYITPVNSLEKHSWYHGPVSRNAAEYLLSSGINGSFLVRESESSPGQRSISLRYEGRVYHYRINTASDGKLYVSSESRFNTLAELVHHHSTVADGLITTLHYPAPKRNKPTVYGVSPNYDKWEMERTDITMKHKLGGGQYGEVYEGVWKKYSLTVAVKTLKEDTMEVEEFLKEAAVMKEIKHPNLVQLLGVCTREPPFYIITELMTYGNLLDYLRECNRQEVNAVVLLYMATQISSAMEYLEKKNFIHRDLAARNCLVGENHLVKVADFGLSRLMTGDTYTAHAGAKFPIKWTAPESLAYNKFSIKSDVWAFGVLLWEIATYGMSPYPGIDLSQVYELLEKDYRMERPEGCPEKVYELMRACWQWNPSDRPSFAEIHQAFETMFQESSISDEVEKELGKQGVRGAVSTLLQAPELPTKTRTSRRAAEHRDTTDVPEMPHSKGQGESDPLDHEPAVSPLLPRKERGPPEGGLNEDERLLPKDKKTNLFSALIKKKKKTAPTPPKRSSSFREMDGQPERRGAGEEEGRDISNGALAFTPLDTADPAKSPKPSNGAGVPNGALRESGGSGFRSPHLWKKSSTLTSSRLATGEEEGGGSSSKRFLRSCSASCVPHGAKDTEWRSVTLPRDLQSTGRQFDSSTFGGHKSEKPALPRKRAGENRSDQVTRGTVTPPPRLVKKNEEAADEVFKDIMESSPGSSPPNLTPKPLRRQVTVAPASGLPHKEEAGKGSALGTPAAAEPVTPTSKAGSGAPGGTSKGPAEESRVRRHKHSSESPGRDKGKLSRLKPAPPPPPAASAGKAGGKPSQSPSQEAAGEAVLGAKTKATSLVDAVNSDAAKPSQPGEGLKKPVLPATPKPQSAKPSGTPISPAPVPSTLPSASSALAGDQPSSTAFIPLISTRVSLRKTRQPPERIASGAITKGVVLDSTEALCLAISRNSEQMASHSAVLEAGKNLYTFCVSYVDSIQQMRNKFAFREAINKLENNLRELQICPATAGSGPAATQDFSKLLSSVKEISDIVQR
Chain of CLK1 (P49759 whole entry): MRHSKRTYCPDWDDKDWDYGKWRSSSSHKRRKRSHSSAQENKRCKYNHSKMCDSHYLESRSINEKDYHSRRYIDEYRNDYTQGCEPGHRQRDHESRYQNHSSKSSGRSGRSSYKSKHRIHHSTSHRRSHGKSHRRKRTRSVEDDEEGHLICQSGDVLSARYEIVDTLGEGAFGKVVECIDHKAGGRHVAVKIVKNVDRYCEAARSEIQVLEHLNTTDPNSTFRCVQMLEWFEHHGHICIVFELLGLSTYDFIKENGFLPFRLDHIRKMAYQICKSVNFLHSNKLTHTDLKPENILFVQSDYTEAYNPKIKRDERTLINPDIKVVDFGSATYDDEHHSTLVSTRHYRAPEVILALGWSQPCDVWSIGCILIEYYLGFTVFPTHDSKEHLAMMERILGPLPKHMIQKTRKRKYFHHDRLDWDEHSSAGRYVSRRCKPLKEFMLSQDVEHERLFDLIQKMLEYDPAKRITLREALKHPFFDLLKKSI
Chain of MYLK3 (Q32MK0 whole entry): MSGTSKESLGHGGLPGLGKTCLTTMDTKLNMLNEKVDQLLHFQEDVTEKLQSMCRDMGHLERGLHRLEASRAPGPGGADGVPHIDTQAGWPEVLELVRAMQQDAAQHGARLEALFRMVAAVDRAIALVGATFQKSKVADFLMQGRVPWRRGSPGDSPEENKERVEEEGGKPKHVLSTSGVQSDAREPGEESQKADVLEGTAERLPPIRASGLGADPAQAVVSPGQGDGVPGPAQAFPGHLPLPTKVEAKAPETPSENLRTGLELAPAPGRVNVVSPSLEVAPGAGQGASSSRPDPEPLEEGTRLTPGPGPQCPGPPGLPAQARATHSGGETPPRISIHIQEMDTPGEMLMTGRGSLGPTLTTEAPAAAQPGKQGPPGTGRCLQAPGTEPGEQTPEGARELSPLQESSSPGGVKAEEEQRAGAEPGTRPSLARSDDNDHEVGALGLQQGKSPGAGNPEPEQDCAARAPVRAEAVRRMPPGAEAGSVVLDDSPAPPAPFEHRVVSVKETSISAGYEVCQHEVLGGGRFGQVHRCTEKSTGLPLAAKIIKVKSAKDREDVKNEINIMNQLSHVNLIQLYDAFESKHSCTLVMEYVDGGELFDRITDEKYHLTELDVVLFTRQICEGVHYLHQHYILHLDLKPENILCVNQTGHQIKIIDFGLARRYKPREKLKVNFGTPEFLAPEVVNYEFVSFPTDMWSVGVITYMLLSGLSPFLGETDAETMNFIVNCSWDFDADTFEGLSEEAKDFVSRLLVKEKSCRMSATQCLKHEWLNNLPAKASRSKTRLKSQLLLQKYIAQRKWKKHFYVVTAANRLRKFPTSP
Chain of MST4 (Q9P289 whole entry): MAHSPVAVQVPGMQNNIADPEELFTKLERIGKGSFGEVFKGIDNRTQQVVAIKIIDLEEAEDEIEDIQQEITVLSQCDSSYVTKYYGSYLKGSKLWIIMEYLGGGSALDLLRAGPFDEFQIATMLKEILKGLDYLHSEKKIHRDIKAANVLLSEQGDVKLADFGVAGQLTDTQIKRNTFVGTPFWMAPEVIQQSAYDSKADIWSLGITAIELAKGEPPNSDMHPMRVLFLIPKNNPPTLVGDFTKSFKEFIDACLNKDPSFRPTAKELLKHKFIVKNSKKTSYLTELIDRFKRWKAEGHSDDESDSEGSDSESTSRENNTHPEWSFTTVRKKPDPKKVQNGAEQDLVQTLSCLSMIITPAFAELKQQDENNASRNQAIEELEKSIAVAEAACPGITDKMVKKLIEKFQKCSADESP
Chain of MET (P08581 whole entry): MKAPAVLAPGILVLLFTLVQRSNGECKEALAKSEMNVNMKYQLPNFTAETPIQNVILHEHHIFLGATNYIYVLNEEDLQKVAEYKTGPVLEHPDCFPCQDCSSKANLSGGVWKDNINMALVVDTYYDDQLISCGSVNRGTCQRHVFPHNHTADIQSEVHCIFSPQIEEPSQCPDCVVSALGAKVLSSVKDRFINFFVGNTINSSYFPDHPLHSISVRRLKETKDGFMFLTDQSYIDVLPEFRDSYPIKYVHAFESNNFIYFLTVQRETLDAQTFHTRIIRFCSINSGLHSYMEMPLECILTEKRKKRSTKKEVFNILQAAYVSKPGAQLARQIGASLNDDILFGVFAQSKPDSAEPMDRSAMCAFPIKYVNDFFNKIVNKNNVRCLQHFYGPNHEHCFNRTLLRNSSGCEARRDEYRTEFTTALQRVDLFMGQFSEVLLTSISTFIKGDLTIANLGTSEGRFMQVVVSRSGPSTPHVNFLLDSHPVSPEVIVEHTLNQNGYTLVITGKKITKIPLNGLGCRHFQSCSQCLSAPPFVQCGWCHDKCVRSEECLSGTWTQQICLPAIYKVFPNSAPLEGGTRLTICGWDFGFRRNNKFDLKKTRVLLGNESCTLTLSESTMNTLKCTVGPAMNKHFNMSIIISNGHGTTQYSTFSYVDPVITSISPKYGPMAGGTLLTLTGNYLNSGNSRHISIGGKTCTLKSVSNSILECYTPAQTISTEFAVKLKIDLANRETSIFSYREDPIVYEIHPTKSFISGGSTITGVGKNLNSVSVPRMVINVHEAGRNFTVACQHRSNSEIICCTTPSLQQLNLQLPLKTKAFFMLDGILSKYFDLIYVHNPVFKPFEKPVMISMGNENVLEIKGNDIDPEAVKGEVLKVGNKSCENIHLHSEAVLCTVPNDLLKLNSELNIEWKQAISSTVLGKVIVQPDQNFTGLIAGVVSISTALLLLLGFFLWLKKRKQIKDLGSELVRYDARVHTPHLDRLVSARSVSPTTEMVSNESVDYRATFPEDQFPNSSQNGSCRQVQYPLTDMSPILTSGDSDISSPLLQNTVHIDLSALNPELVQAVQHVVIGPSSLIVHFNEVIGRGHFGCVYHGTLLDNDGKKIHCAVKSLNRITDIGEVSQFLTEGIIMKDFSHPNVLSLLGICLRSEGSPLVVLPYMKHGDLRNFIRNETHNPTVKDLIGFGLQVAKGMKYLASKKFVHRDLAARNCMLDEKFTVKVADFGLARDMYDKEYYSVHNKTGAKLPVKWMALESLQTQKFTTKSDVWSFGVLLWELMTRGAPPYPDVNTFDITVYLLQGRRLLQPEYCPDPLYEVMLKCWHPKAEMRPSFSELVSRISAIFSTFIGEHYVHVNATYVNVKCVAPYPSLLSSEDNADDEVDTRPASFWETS
Chain of GRK2 (P25098 whole entry): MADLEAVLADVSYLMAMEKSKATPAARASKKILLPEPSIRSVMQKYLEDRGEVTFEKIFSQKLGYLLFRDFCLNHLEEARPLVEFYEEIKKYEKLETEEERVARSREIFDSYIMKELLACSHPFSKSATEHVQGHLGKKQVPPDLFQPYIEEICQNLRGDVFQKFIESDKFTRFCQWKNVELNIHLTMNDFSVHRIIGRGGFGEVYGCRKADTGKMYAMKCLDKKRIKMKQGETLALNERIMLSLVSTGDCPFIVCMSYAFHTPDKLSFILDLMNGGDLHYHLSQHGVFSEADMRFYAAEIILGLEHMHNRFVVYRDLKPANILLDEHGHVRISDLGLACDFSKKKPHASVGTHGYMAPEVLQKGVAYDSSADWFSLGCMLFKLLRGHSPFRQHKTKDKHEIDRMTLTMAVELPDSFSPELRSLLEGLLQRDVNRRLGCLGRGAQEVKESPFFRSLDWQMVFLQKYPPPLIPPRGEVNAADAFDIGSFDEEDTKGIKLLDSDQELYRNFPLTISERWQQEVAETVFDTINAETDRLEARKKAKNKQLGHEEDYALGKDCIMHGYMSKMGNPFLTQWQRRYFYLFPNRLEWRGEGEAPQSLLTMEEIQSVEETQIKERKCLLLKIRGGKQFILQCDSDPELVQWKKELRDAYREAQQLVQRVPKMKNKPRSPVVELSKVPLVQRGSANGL
Chain of ABL1-nonphosphorylated (P00519 whole entry): as the sequence (P00519 whole entry F317L) above, with L317F counted along it

SMILES: CNc1ncc2cc(-c3ccc(-c4cccc(C)n4)cc3Cl)c(=O)n(C[C@H]3OC[C@H](N)CO3)c2n1 [compound 6, G-5555]
- Percent Control (PFTAIRE2): 100%
- Percent Control (PRKD3): 20%
- Percent Control (CLK1): 100%
- Percent Control (PIK3CG): 93%
- Percent Control (SIK2): 0.8%
- Percent Control (MST4): 0%
- Percent Control (RIOK1): 100%
- Percent Control (PKN2): 100%
- Percent Control (YANK2): 0%
- Percent Control (EGFR(L858R)): 85%
- Percent Control (CAMK2D): 100%
- Percent Control (CDKL3): 100%
- Percent Control (FAK): 100%
- Percent Control (LIMK2): 100%
- Percent Control (ABL1-nonphosphorylated): 85%
- Percent Control (MAP3K2): 67%
- Percent Control (MET): 40%
- Percent Control (RPS6KA5): 100%
- Percent Control (GRK2): 100%
- Percent Control (CSNK1G3): 100%
- Percent Control (ANKK1): 87%
- Percent Control (INSR): 97%
- Percent Control (EPHB1): 100%
- Percent Control (MYLK3): 100%
- Percent Control (CSF1R): 92%
- Percent Control (KIT): 100%
- Percent Control (ABL1(F317L); nonphosphorylated): 87%
- Percent Control (ABL1(F317L); phosphorylated): 100%
- Percent Control (TNIK): 51%
- Percent Control (CDC2L1): 97%
- Percent Control (CDK7): 86%

From paper doi:10.1101/2021.04.08.439011v1 (biorxiv, 2021)
